The target in this test is T1, human MRGPRX2 (Homo sapiens, UniProt Q96LB1).
T1 sequence (Q96LB1 1-330): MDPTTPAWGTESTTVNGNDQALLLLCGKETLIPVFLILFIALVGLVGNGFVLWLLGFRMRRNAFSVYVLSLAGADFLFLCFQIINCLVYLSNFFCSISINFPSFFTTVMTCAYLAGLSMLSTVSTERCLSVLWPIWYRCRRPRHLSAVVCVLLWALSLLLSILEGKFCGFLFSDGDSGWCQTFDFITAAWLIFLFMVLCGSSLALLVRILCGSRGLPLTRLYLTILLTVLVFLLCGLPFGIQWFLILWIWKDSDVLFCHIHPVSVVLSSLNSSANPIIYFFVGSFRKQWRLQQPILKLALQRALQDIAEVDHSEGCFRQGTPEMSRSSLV
As to the kind of experiment: Ca2+ mobilization assay (FLIPR TETRA): inhibition of Cortistatin-14 mediated MRGPRX2 activation. (Calcium flux is commonly read through the fluorescence of an indicator in the cells.)

The results in this text go back to patent publication US11976057B2, “MrgX2 antagonists” (GlaxoSmithKline Intellectual Property Development Limited, priority 2020, dated 2024).

The IC50 is the concentration at which inhibition is half-maximal. Lower therefore signals higher potency. Take `CC(C(=O)Nc1ccc(Oc2cncc(F)c2)cn1)N1CCC(F)(F)[C@@H](c2ccc(=O)[nH]c2)C1` (stereo partly drawn) [Example 67, 2-((S)-4,4-difluoro-3-(6-oxo-1,6-dihydropyridin-3-yl)piperidin-1-yl)-N-(5-((5-fluoropyridin-3-yl)oxy)pyridin-2-yl)propanamide]: the IC50 is 10 to 100 nM.
For `C[C@@H](C(=O)Nc1cnc(Oc2ccc(F)cc2)cn1)N1CCC(F)(F)[C@@H](c2ccc(=O)[nH]c2)C1` [Example 68, (S)-2-((S)-4,4-difluoro-3-(6-oxo-1,6-dihydropyridin-3-yl)piperidin-1-yl)-N-(5-(4-fluorophenoxy)pyrazin-2-yl)propanamide] the value was 10 to 100 nM; for `C[C@@H](C(=O)Nc1ccc(Oc2ccc(F)cn2)cn1)N1CCC(F)(F)[C@@H](c2ccc(=O)[nH]c2)C1` [Example 69, (S)-2-((S)-4,4-difluoro-3-(6-oxo-1,6-dihydropyridin-3-yl)piperidin-1-yl)-N-(5-((5-fluoropyridin-2-yl)oxy)pyridin-2-yl)propanamide], ≤ 10 nM.
In turn, `C[C@@H](C(=O)Nc1cnc(C2CC2)cn1)N1CCC(F)(F)[C@@H](c2ccc(=O)[nH]c2)C1` [Example 70, (S)-N-(5-cyclopropyl-pyrazin-2-yl)-2-((S)-4,4-difluoro-3-(6-oxo-1,6-dihydropyridin-3-yl)piperidin-1-yl)propanamide] showed an IC50 of 100 to 3160 nM.
`C[C@@H](C(=O)Nc1ccc(OCC2CCC2)nn1)N1CCC(F)(F)[C@@H](c2ccc(=O)[nH]c2)C1` [Example 71, (S)-N-(6-(cyclobutyl-methoxy)pyridazin-3-yl)-2-((S)-4,4-difluoro-3-(6-oxo-1,6-dihydropyridin-3-yl)piperidin-1-yl)propanamide] yielded an IC50 of 100 to 3160 nM.
Compound `CC(C(=O)Nc1ccc(Oc2ccc[nH]c2=O)cn1)N1CCC(F)(F)[C@@H](c2ccc(=O)[nH]c2)C1` (stereo partly drawn) [Example 72, 2-((S)-4,4-difluoro-3-(6-oxo-1,6-dihydropyridin-3-yl)piperidin-1-yl)-N-(5-((2-oxo-1,2-dihydropyridin-3-yl)oxy)pyridin-2-yl)propanamide] had an IC50 of 10 to 100 nM.
Compound `CC(C(=O)Nc1ccc(OC2CC3(CCC3)C2)cn1)N1CCC(F)(F)[C@@H](c2ccc(=O)[nH]c2)C1` (stereo partly drawn) [Example 73, 2-((S)-4,4-difluoro-3-(6-oxo-1,6-dihydropyridin-3-yl)piperidin-1-yl)-N-(5-(spiro[3.3]heptan-2-yloxy)pyridin-2-yl)propanamide] yielded an IC50 of 100 to 3160 nM.
For `C[C@@H](C(=O)Nc1ccc(Oc2ccncn2)cn1)N1CCC(F)(F)[C@@H](c2ccc(=O)[nH]c2)C1` [Example 74, (S)-2-((S)-4,4-difluoro-3-(6-oxo-1,6-dihydropyridin-3-yl)piperidin-1-yl)-N-(5-(pyrimidin-4-yloxy)pyridin-2-yl)propanamide] the value was 100 to 3160 nM; for `C[C@@H](C(=O)Nc1ccc(OCC2CC2)cn1)N1CCC(F)(F)[C@@H](c2ccc(=O)[nH]c2)C1` [Example 75, (S)-N-(5-(cyclopropyl-methoxy)pyridin-2-yl)-2-((S)-4,4-difluoro-3-(6-oxo-1,6-dihydropyridin-3-yl)piperidin-1-yl)propanamide], 10 to 100 nM.
With `C[C@@H](C(=O)Nc1cc(F)c(OCC2CC2)cn1)N1CCC(F)(F)[C@@H](c2ccc(=O)[nH]c2)C1` [Example 76, (S)-N-(5-(cyclopropyl-methoxy)-4-fluoropyridin-2-yl)-2-((S)-4,4-difluoro-3-(6-oxo-1,6-dihydropyridin-3-yl)piperidin-1-yl)propanamide], the IC50 is 10 to 100 nM.
With `CC(C(=O)Nc1ccc2cc(C3CC3)cnc2n1)N1CCC(F)(F)[C@@H](c2ccc(=O)[nH]c2)C1` (stereo partly drawn) [Example 77, N-(6-cyclopropyl-1,8-naphthyridin-2-yl)-2-((S)-4,4-difluoro-3-(6-oxo-1,6-dihydropyridin-3-yl)piperidin-1-yl)propanamide] the figure was 100 to 3160 nM; with `CC(C(=O)Nc1ccc(OC2CCC2)cn1)N1CCC(F)(F)[C@@H](c2ccc(=O)[nH]c2)C1` (stereo partly drawn) [Example 78, N-(5-cyclobutoxy-pyridin-2-yl)-2-((S)-4,4-difluoro-3-(6-oxo-1,6-dihydropyridin-3-yl)piperidin-1-yl)propanamide], 100 to 3160 nM; with `C[C@@H](C(=O)Nc1ccc(F)cn1)N1CCC(F)(F)[C@@H](c2ccc(=O)[nH]c2)C1` [Example 79, (S)-2-((S)-4,4-difluoro-3-(6-oxo-1,6-dihydropyridin-3-yl)piperidin-1-yl)-N-(5-fluoropyridin-2-yl)propanamide], 10 to 100 nM.
Compound `C[C@@H](C(=O)Nc1ccc(/C=C\C2CC2)cn1)N1CCC(F)(F)[C@@H](c2ccc(=O)[nH]c2)C1` [Example 80, (S)-N-(5-((Z)-2-cyclopropylvinyl)pyridin-2-yl)-2-((S)-4,4-difluoro-3-(6-oxo-1,6-dihydropyridin-3-yl)piperidin-1-yl)propanamide] yielded an IC50 of 10 to 100 nM.
The compound `C[C@@H](C(=O)Nc1ccc(Cl)cn1)N1CCC(F)(F)[C@@H](c2ccc(=O)[nH]c2)C1` [Example 81, (S)-N-(5-chloropyridin-2-yl)-2-((S)-4,4-difluoro-3-(6-oxo-1,6-dihydropyridin-3-yl)piperidin-1-yl)propanamide] displayed an IC50 of 100 to 3160 nM.
The compound `CC(C)c1ccc(NC(=O)C(C)N2CCC(F)(F)[C@@H](c3ccc(=O)[nH]c3)C2)nc1` (stereo partly drawn) [Example 82, 2-((S)-4,4-difluoro-3-(6-oxo-1,6-dihydropyridin-3-yl)piperidin-1-yl)-N-(5-isopropylpyridin-2-yl)propanamide] displayed an IC50 of 100 to 3160 nM.
For `CC(C(=O)Nc1ccc(C(=O)OC2CC2)cn1)N1CCC(F)(F)[C@@H](c2ccc(=O)[nH]c2)C1` (stereo partly drawn) [Example 83, cyclopropyl 6-(2-((S)-4,4-difluoro-3-(6-oxo-1,6-dihydropyridin-3-yl)piperidin-1-yl)propanamido) nicotinate] the value was 100 to 3160 nM.
In turn, `C[C@@H](C(=O)Nc1ccc(CC2CCC2)cn1)N1CCC(F)(F)[C@@H](c2ccc(=O)[nH]c2)C1` [Example 84, (S)-N-(5-(cyclobutyl-methyl)pyridin-2-yl)-2-((S)-4,4-difluoro-3-(6-oxo-1,6-dihydropyridin-3-yl)piperidin-1-yl)propanamide] came in with an IC50 of 10 to 100 nM.
For `C[C@@H](C(=O)Nc1cnc(Oc2ccc(F)cc2F)cn1)N1CCC(F)(F)[C@@H](c2ccc(=O)[nH]c2)C1` [Example 85, (S)-2-((S)-4,4-difluoro-3-(6-oxo-1,6-dihydropyridin-3-yl)piperidin-1-yl)-N-(5-(2,4-difluorophenoxy)pyrazin-2-yl)propanamide], the IC50 was ≤ 10 nM.
As to `CC(C(=O)Nc1ncc(Oc2ccc(F)cc2)cc1F)N1CCC(F)(F)[C@@H](c2ccc(=O)[nH]c2)C1` (stereo partly drawn) [Example 86, 2-((S)-4,4-difluoro-3-(6-oxo-1,6-dihydropyridin-3-yl)piperidin-1-yl)-N-(3-fluoro-5-(4-fluorophenoxy)pyridin-2-yl)propanamide], the 50% inhibitory concentration (IC50) was 10 to 100 nM.
With `CC(C(=O)Nc1ncc(Oc2ccc(F)cc2F)cc1F)N1CCC(F)(F)[C@@H](c2ccc(=O)[nH]c2)C1` (stereo partly drawn) [Example 87, 2-((S)-4,4-difluoro-3-(6-oxo-1,6-dihydropyridin-3-yl)piperidin-1-yl)-N-(5-(2,4-difluorophenoxy)-3-fluoropyridin-2-yl)propanamide] the figure was ≤ 10 nM.
Take `C[C@@H](C(=O)Nc1ccc(Oc2ccc(Cl)cn2)cn1)N1CCC(F)(F)[C@@H](c2ccc(=O)[nH]c2)C1` [Example 88, (S)-N-(5-((5-chloropyridin-2-yl)oxy)pyridin-2-yl)-2-((S)-4,4-difluoro-3-(6-oxo-1,6-dihydropyridin-3-yl)piperidin-1-yl)propanamide]: the IC50 was in the range of 10 to 100 nM.
`C[C@@H](C(=O)Nc1ccc(OCC(C)(C)C)nn1)N1CCC(F)(F)[C@@H](c2ccc(=O)[nH]c2)C1` [Example 89, (S)-2-((S)-4,4-difluoro-3-(6-oxo-1,6-dihydropyridin-3-yl)piperidin-1-yl)-N-(6-(neopenlyloxy)pyridazin-3-yl)propanamide] came in with an IC50 of 100 to 3160 nM.
With `CC(C(=O)Nc1ccc(Oc2ncc(F)cc2Cl)cn1)N1CCC(F)(F)[C@@H](c2ccc(=O)[nH]c2)C1` (stereo partly drawn) [Example 90, N-(5-((3-chloro-5-fluoropyridin-2-yl)oxy)pyridin-2-yl)-2-((S)-4,4-difluoro-3-(6-oxo-1,6-dihydropyridin-3-yl)piperidin-1-yl)propanamide] the figure was ≤ 10 nM; with `CC(C(=O)Nc1ncc(Oc2ccc(F)cn2)cc1F)N1CCC(F)(F)[C@@H](c2ccc(=O)[nH]c2)C1` (stereo partly drawn) [Example 91, 2-((S)-4,4-difluoro-3-(6-oxo-1,6-dihydropyridin-3-yl)piperidin-1-yl)-N-(3-fluoro-5-((5-fluoropyridin-2-yl)oxy)pyridin-2-yl)propanamide], 100 to 3160 nM; with `CC(C(=O)Nc1ccc(Oc2ncc(F)cc2C#N)cn1)N1CCC(F)(F)[C@@H](c2ccc(=O)[nH]c2)C1` (stereo partly drawn) [Example 92, N-(5-((3-cyano-5-fluoropyridin-2-yl)oxy)pyridin-2-yl)-2-((S)-4,4-difluoro-3-(6-oxo-1,6-dihydropyridin-3-yl)piperidin-1-yl)propanamide], 10 to 100 nM.
`CC(C(=O)Nc1ccc(OC2CC3(CCC3)C2)nn1)N1CCC(F)(F)[C@@H](c2ccc(=O)[nH]c2)C1` (stereo partly drawn) [Example 93, 2-((S)-4,4-difluoro-3-(6-oxo-1,6-dihydropyridin-3-yl)piperidin-1-yl)-N-(6-(spiro[3.3]heptan-2-yloxy)pyridazin-3-yl)propanamide]: the IC50 was in the range of 100 to 3160 nM.
In turn, `CC(C(=O)Nc1ccc(Br)cn1)N1CCC(F)(F)[C@@H](c2ccc(=O)[nH]c2)C1` (stereo partly drawn) [Example 94, N-(5-bromopyridin-2-yl)-2-((S)-4,4-difluoro-3-(6-oxo-1,6-dihydropyridin-3-yl)piperidin-1-yl)propanamide] registered an IC50 of 100 to 3160 nM.
